Test results published in patent US20020002294A1, “Estrogenic compounds as antiangiogenic agents” (priority 1997, published 2002).

Columns and labels:
[1] = biological target: T1, rat uterine cytosolic estrogen receptor (Rattus norvegicus, UniProt P06211); test: Relative Binding Affinity to estrogen receptor; details: at 0°; 3H-Estradiol=100
T1 construct: from tissue; host or cells: rat uterine cytosol (per the result head)
T1 sequence (P06211 1-600): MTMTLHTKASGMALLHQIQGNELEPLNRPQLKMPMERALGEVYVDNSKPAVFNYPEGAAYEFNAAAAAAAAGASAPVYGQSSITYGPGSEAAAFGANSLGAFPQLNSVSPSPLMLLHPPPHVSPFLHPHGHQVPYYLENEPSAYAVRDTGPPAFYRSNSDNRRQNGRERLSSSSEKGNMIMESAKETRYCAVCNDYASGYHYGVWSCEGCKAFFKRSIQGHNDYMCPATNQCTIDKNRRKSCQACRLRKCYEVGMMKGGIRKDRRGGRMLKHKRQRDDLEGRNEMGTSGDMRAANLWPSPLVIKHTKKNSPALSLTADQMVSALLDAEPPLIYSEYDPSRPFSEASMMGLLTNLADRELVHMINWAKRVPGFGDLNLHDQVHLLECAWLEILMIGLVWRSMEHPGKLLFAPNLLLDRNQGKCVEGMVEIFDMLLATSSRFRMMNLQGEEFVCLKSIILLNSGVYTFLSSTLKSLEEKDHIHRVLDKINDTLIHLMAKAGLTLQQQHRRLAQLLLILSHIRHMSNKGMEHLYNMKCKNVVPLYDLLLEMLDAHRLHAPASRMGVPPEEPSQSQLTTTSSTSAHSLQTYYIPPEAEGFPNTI
Description: (§1) The tubulin activities, breast cancer cell line activities, and the cell panels most sensitive to selected analogs are shown in Tables 3 and 4.

CNS cell lines = test: Human Tumor Cell Panel Assay in vitro, CNS panel; format: cell-based; design: key: Most sensitive cell panes are marked with ✓
Description: as §1

tubulin [2] = test: inhibition of [3H]colchicine binding to tubulin; details: 1.0 μM tubulin, 10 min at 37° C.
Experimental: Incubation was for 10 min. at 37° C.
Incubation was for 10 mi. at 37° C. Average values obtained in three independent experiments are presented in the table, except for 2-methoxyestrone, which was only examined twice. S.D., standard deviation.

Melanoma cell lines = test: Human Tumor Cell Panel Assay in vitro, melanoma panel; format: cell-based; design: key: Most sensitive cell panes are marked with ✓
Description: as §1

[3] = tested on: new blood vessel cells (angiogenesis); test: chick embryo chorioallantoic membrane (CAM) assay; format: in vivo; details: 100 mg disk, after 48 hours
Experimental: A suitable assay is the chick embryo chorioallantoic membrane (CAM) assay described by Crum et al. Science 230:1375 (1985). See also, U.S. Pat. No. 5,001,116, hereby incorporated by reference, which describes the CAM assay. Briefly, fertilized chick embryos are removed from their shell on day 3 or 4, and a methylcellulose disc containing the drug is implanted on the chorioallantoic membrane. The embryos are examined 48 hours later and, if a clear avascular zone appears around the methylcellulose disc, the diameter of that zone is measured.

[4] = tested on: Ovarian cell lines (especially OVCAR-3); test: Human Tumor Cell Panel Assay in vitro, ovarian panel; format: cell-based; design: key: Most sensitive cell panes are marked with ✓
Description: as §1

[5] = tested on: corneal neovascularization; test: Mouse Corneal Micropocket Assay; format: in vivo, mice; details: 150 mg/kg, daily oral, 5 days
Experimental: Five- to 7-week-old SCID female mice were obtained from Massachusetts General Hospital (Boston, Mass.), Immunocompetent 7-9-week-old female C57BL/6 mice were obtained from ARCH Technical Services, Children's Hospital (Boston, Mass.). All animal studies were conducted according to protocols approved by the Animal Ethics Committee of Children's Hospital. Animals were anesthetized in a methoxyflurane (Pittman-Moore, Mundelein, Ill.) chamber prior to all procedures and were observed until fully recovered. Animals were sacrificed by a lethal dose of methoxyflurane.
Mouse Corneal Micropocket Assay To study the effect of microtubule inhibitors on angiogenesis in vivo, a model of angiogenesis in the mouse cornea was used in […] mice as described previously (Kenyon, B. B., Voest, E. E., Chen, C. C., Folkman, J., and D'Amato, R. J. A model of angiogenesis in the mouse cornea. Invest. Ophthalmol. & Visual Sci., 76: 1625-1632, 1996). In brief, after animals were anesthetized, corneal micropockets were created in both eyes with a modified von Graefe cataract knife. Into each pocket, a 0.4 mm ×0.4 mm×0.2 mm sucrose aluminum sulfate (Bukh Meditee, Copenhagen, Denmark) pellet coated with hydron polymer type NCC (IHN Sciences, New Brunswick, N.J.) containing 80 ng of bFGF or 160 ng of human recombinant […] (gift from Reprogenesis, Cambridge, Mass.) was implanted 1.0-1.2 mm from the limbal vessels (bFGF experiments) or 0.5-0.7 mm from the limbus (VEGF experiments). Erythromycin ointment (E. Fougera, Melville, N.Y.) was applied to each operated eye. The sucralfate acts to stabilize the growth factor and to slow its release from the hydron. Before testing each drug in this assay, we found the maximal dose that could be administered daily for 5 consecutive days without producing signs of toxicity (i.e., no hair loss, diarrhea, infection, lethargy, or weight loss). The treated groups received daily oral administration for 5 consecutive days of the stated dosage of 2-ME or a derivative thereof suspended in 0.5 g/100 ml of carboxymethylcellulose.
Treatment was started on the day of pellet implantation. […] For this purpose, the eyes of the mice were examined by slit-lamp biomicroscopy. Area of corneal neovascularization was calculated using a modified formula for a half-ellipse: Area (mm^2)=[π×clock hours×length (mm)×0.2 mm]. This formula provides the most accurate approximation of the area of neovascularization that grows toward the pellet. (Kenyon, B. B., Voest, E. E., Chen, C. C., Folkman, J., and D'Amato, R. J. A model of angiogenesis in the mouse cornea. Invest. Ophthalmol. & Visual Sci., 76: 1625-1632, 1996).

[6] = tested on: 8 human breast cancer cell lines; test: human tumor cell panel assay in vitro, breast panel; format: cell-based; design: key to Most Sensitive Cell Lines in Human Tumor Cell Panel Assay: Breast: Most sensitive cell panes are marked with ✓
Description: as §1

tubulin [7] = test: tubulin activities of 2-ME analogs (Table 3); format: biochemical

Structure (SMILES): COc1cc2c(cc1O)CCC1C2CCC2(C)C(O)CCC12 (centres unmarked) [NSC 659853, 2-Methoxyestradiol]
- RBA, Relative Binding Affinity to rat uterine cytosolic estrogen receptor [1]: 0.245
- Most Sensitive Cell Lines in Human Tumor Cell Panel Assay: CNS (CNS cell lines): ✓
- inhibition of colchicine binding to tubulin (FIG. 2), in words (tubulin [2]; 5 μM [3H]colchicine): inhibits colchicine binding to tubulin
- Percentage Inhibition of colchicine binding to tubulin (tubulin [2]; 100 μM inhibitor, 2 μM [3H]colchicine, ± S.D.): 82 ± 2%
- Most Sensitive Cell Lines in Human Tumor Cell Panel Assay: Melanoma (Melanoma cell lines): ✓
- inhibition of cell mitosis and growth of new blood vessels in CAM assay [3]: found to inhibit cell mitosis and the growth of new blood vessels
- Most Sensitive Cell Lines in Human Tumor Cell Panel Assay: Ovarian [4]: ✓
- inhibition in corneal pocket assay [5]: 25%
- Most Sensitive Cell Lines in Human Tumor Cell Panel Assay: Breast ([6]; 8 cell lines, only MCF-7 and T-47D express estrogen and progesterone receptors): ✓
- IC50 ([6]; Homo sapiens, cell panel assay in vitro, two values per cell separated by /, read-out: Tumor Panel: Average log IC50(Molar) against 8 human breast cancer cell lines (converted)): 234 nM
- IC50 (tubulin [7]): 3.6 ± 0.4 µM
